Here are results for one molecule from PubChem BioAssay (NCI).

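The compound was tested at five concentrations on cells cultured in 96-well plates, with a 48-hour exposure period. TGI denotes the concentration required for complete inhibition of growth.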 Where only a bound is given, the exact number is not on record here.

The subject of one assay is P388 leukemia. The assay can be described thus: NCI tumour cell line growth inhibition, 48 h.
The next assay has as its system P388/ADR leukemia. Nature of the assay: NCI tumour cell line growth inhibition, 48 h.

As to `O=P(NCCCO)(OCc1ccccc1)N(CCCl)CCCl` (configuration not stated), the TGI with P388 leukemia and in the assay with P388/ADR leukemia was greater than 100 µM each time.
